Here are results for ten compounds from PMC8583966, “Proteasome Inhibitors and Their Pharmacokinetics, Pharmacodynamics, and Metabolism” (International Journal of Molecular Sciences, 2021).

As usually defined, the IC50 is the concentration that gives 50% inhibition. As usually defined, the Tmax is the time from dosing to the highest level. In general, AUC(0-inf) refers to total exposure, with the tail of the curve extrapolated. High values mean more exposure, low ones less exposure. By Cmax is commonly meant the maximum level reached in the sampled fluid or tissue. In general, half-life refers to how long it takes for the measured level to halve.

SMILES strings stand for the structures. Like-named read-outs stand apart in the source and are kept apart here.

The conditions of data set [1]: cited from earlier work.
The subject of data set [2] is 20S proteasome. As to conditions: cited from earlier work; for inhibition of 20S proteasome activity: patients, single agent, after 1-h treatment.
For data set [3] the following is noted: summary table; cited from earlier work.
Data set [4] has as its system CYP450 isozyme 2C9. To be noted: human liver microsomes (~7 µg/mL); cited from earlier work.
Data set [5] concerns CYP450 isozyme 1A2. To be noted: human liver microsomes (~7 µg/mL); cited from earlier work.
The subject of data set [6] is CYP450 isozyme 3A4. To be noted: human liver microsomes (~7 µg/mL); cited from earlier work. Background: Microsomes from liver hold many membrane-bound enzymes, among them those of drug oxidation.
The subject of data set [7] is proteasome subunits. As to conditions: summary table; cited from earlier work.
The conditions of data set [8]: summary table; cited from earlier work. This is another data set of the same source.
A short description of data set [9]: Bortezomib plasma pharmacokinetics in patients. It is filed as in vivo, human. To be noted: CYP IC50 vs Cmax at 1.3 mg/m2.
Protocol: The relationship between plasma concentration and proteasome inhibition was assessed at 1, 6, and 24 h over a 24-hour period.
Data set [10] has as its system CYP450 isozyme 2C19. To be noted: human liver microsomes (~7 µg/mL); cited from earlier work.
Data set [11] relates to CYP450 isozyme 2D6. As to conditions: human liver microsomes (~7 µg/mL); cited from earlier work.
Data set [12] relates to caspase-like activity of the 20S proteasome. To be noted: relative to β5 and LMP7; cited from earlier work.
Data set [13] relates to CYP2B6. To be noted: at higher concentrations, recombinant CYP microsomes; cited from earlier work.
Data set [14] concerns proteasome. More on the design: method as in PMID 30117017. To be noted: whole blood, IV administration; cited from earlier work.
Data set [15] has as its system CYP3A4. As to conditions: at higher concentrations, recombinant CYP microsomes; cited from earlier work.
In data set [16] the test system is trypsin-like activity of the 20S proteasome. To be noted: relative to β5 and LMP7; cited from earlier work.
The conditions of data set [17]: patients, cited from earlier work.
In data set [18] the test system is CYP1A2. To be noted: at higher concentrations, recombinant CYP microsomes; cited from earlier work.
Details of data set [19]: method as in PMID 30128949. To be noted: AUC0–816h time-proportional pooled plasma, single 4.1-mg oral dose [14C]-ixazomib, four patients; cited from earlier work.
The nature of data set [20]: KZR-616 and metabolites in human plasma of SLE patients. In kind it is in vivo. As to conditions: KZR-616 75 mg. How it is done:
Following repeat-dose SC administration, there was no apparent accumulation of immunoproteasome inhibition, although cumulative constitutive proteasome inhibition in whole blood was observed, likely due to the irreversible mechanism of KZR-616 inhibition and the inability of enucleated red blood cells (the major cellular source of constitutive proteasome) to produce new proteasomes. […] As in carfilzomib, and oprozomib, KZR-616 was not stable when incubated in HLMs in the absence of NADPH, indicating non-CYP enzymes were involved in its clearance. […] In pooled plasma samples from 4 patients with systemic lupus erythematous (SLE) receiving a KZR-616 dose of 75 mg, the diol was the major metabolite, and other metabolites from oxidation, hydrolysis + dehydrogenation, oxidation + dehydrogenation double oxidation were less than 1% of the total peak area of all components (Table 2).

The nature of data set [21]: PK of KZR-616 and analogs after single SC dose in monkeys. As to conditions: cynomolgus monkey, in vivo, single SC dose 3 mg/kg. The method, then: (§1) To further evaluate the role of epoxide hydrolase in the metabolism of KZR-616, two analogs were selected for PK and PD studies in cynomolgus monkey to compare with KZR-616. […] Following single subcutaneous (SC) administration to monkeys at 3 mg/kg of these 3 compounds AUC values were the highest with KZR-59240, followed by KZR-616 and KZR-59177. The PK of both parent and diol for each compound were consistent with the stability results in MLM in the absence of NADPH, in which the CYP enzymes were not activated (Table 3), and, as predicted, the diol derivatives were determined to be the major metabolites for all compounds. The PK and PD of KZR-616 was assessed using 2 different drug product formulations, one containing 10% (w/v) PS-80, and the other 2% (w/v) trehalose.

Data set [22] can be described thus: PK of KZR-616 in two drug product formulations. In kind it is in vivo. To be noted: 10% (w/v) PS-80 vs 2% (w/v) trehalose formulation. How it is done:
as §1

Details of data set [23]: method as in PMID 34234005. To be noted: absence of NADPH; cited from earlier work.
In data set [24] the test system is LMP2. More on the design: method as in PMID 30380863. To be noted: mouse arthritis model, active dose; cited from earlier work.
For data set [25], the system named is LMP7. More on the design: method as in PMID 30380863. As to conditions: mouse arthritis model, active dose; cited from earlier work.
For data set [26] the following is noted: healthy volunteers, SC; cited from earlier work.
On the set-up of data set [27]: method as in PMID 19348473. As to conditions: dogs; cited from earlier work.
On the set-up of data set [28]: method as in PMID 28428366. To be noted: pooled HLMs, cited from earlier work.
On the set-up of data set [29]: method as in PMID 19348473. As to conditions: mice; cited from earlier work.
On the set-up of data set [30]: method as in PMID 19348473. To be noted: rats; cited from earlier work.
Details of data set [31]: method as in PMID 28428366. As to conditions: human hepatocytes, quantified with synthesized standards; cited from earlier work.
For data set [32] the following is noted: single agent, cited from earlier work.
Data set [33] deals with proteasome. The arrangement: method as in PMID 31142508. As to conditions: at MTD, 4 h post-dose; cited from earlier work.

As for `CC(C)C[C@H](NC(=O)[C@H](Cc1ccccc1)NC(=O)c1cnccn1)B(O)O` [Bortezomib], the “variation of plasma concentration” value in data set [1] (1 h post-dose) was ~ 800%. The “increase in bortezomib exposure” value in data set [1] (DDI, plus ketoconazole (CYP3A4 inhibitor), patients) is on record as 1.4 fold. In addition, the “variation of proteasome inhibition” value in [2] (1 h post-dose) is listed as ~ 70%. In addition, in [2] (12 h after administration), the “recovery of proteasome activity” value is 50%. Besides, the “Time to Emax (median)” value in [2] (IV administration) is reported as 5 min; in data set [2] (SC administration), 120 min. Also, the “mean maximum inhibition (Emax)” value in data set [2] (IV administration) is given as “approximately 69%”. Also, the “time to complete recovery of proteasome activity” value in data set [2] (after administration) is at most 72 h. In addition, the “time to full recovery of proteasome activity” value in data set [2] (after dosing) was 36 h. In [2] (assessed at 1, 6 and 24 h), the “time by which recovery of proteasome activity was observed” value is on record as at most 24 h. The “inhibition of 20S proteasome activity” value is reported as 36% in data set [2] (0.40 mg/m2), 60% in [2] (1.04 mg/m2), 65% in data set [2] (1.20 mg/m2) and 74% in data set [2] (1.38 mg/m2). Besides, the Absorption entry in data set [3] is given as “fast”. Also, the Clearance entry in [3] is recorded as “fast”. Also, the 50% inhibitory concentration (IC50) in [4], in data set [5], in [6], in data set [10] and in data set [11] was above 18 µM each time. Moreover, the “Subunit Inhibition” value in data set [7] is “ß5 and LMP7”. Also, the “Metabolic Pathwas” value in data set [8] is on record as “Hydrolases, CYPs”. Further, the “CYP450 IC50 values higher than Cmax” value in data set [9] was found to be 60 fold.
For the compound `CC(C)C[C@H](NC(=O)CNC(=O)c1cc(Cl)ccc1Cl)B(O)O` [Ixazomib], the “less potency than for chymotrypsin-like activities” value is on record as 10 fold in [12] and 1000 fold in [16]. The values for the contribution to metabolism in [13], in [15] and in [18] were 16%, 42% and 26%, respectively. The “time to recovery of proteasome inhibition” value in data set [14] is at most 24 h. The Absorption result in [3] is “fast”. For the same compound, in data set [3], the Clearance result is given as “fast”. Besides, the “Subunit Inhibition” value in data set [7] was “ß5 and LMP7”. In data set [8], the “Metabolic Pathwas” value was “Hydrolases, CYPs”. The Tmax entry in data set [17] (oral) is “approximately 1 h”. Further, the apparent clearance in [17] is given as ~ 1.9 L/h. For the same compound, the “% of plasma TRA” value in data set [19] is 54.2%.
On to `COc1ccc([C@@H](O)[C@H](NC(=O)[C@H](C)NC(=O)CN2CCOCC2)C(=O)N[C@@H](CC2=CCCC2)C(=O)[C@@]2(C)CO2)cc1` [KZR-616, (2S,3R)-N-((S)-3-(Cyclopent-1-en-1-yl)-1-((R)-2-methyloxiran-2-yl)-1oxopropan-2-yl)-3-hydroxy-3-(4-methoxyphenyl)-2-((S)-2-(2morpholinoacetamido)propanamido)propenamide], for which, in data set [20] (Subject 110-004, SLE patient), the “Component in Plasma as % of Total XIC (Extracted Ion Chromatogram) Area” value (from here on “Component in Plasma as % of Total XIC”) worked out at 61.2%. Further, the “Component in Plasma as % of Total XIC” value in [20] (Subject 112-021, SLE patient) was 49.0%. In addition, the “Component in Plasma as % of Total XIC” value in data set [20] (Subject 113-002, SLE patient) is recorded as 46.5%. The “Component in Plasma as % of Total XIC” value in data set [20] (Subject 116-012, SLE patient) was determined as 51.8%. Further, in [21], the total exposure AUC(0-inf) is 740 ± 188 ng·h/mL, the concentration peaked (Cmax) at 441 ± 114 ng/mL, the time of peak concentration (Tmax) is 0.333 ± 0.136 h and the half-life is 1.05 ± 0.13 h. Besides, in [3], the Absorption result was “fast” and the Clearance result is recorded as “fast”. In data set [22], the “difference in Cmax between formulations” value stood at 2 fold and the “total exposure (AUC) in both formulations” value was “equivalent”. In addition, the “stability in HLMs” value in [23] is recorded as “not stable”. Besides, in [24], the LMP2 inhibition is reported as ~ 40%. Further, the “Subunit Inhibition” value in [7] was “LMP2 and LMP7”. In addition, in data set [8], the “Metabolic Pathwas” value is reported as “Microsomal epoxide hydrolase”. In data set [25], the LMP7 inhibition entry was “complete”. Moreover, in [26], the time of peak concentration (Tmax) was below 1 h and the t1/2 was below 4 h.
As to `COc1ccc(C(O)C(NC(=O)C(C)NC(=O)CN2CCOCC2)C(=O)NC(CC2=CCCC2)C(=O)C(C)(O)CO)cc1` (stereo not shown) [KZR-59587], the “Component in Plasma as % of Total XIC” value in [20] (Subject 110-004, SLE patient) is 33.8%; in [20] (Subject 112-021, SLE patient) it was 45.8%; in [20] (Subject 113-002, SLE patient), 47.9%; in data set [20] (Subject 116-012, SLE patient) it was 43.8%.
For the compound `CC(C)C[C@@H](O)NC(=O)[C@H](Cc1ccccc1)NC(=O)c1cnccn1` [M1], in data set [19], the “% of plasma TRA” value is recorded as 18.9%.
With `CC(C)C[C@H](O)NC(=O)[C@H](Cc1ccccc1)NC(=O)c1cnccn1` [M2], in data set [19], the “% of plasma TRA” value is listed as 7.91%.
Consider `NC(=O)[C@H](Cc1ccccc1)NC(=O)c1cnccn1` [M3], for which the “% of plasma TRA” value in [19] is given as 10.6%.
Regarding `COC[C@H](NC(=O)c1cnc(C)s1)C(=O)N[C@@H](COC)C(=O)N[C@@H](Cc1ccccc1)C(=O)[C@@]1(C)CO1` [Oprozomib], the figures for the “oral bioavailability F%” value in data set [27], in [29] and in data set [30] were 39%, 17% and 21%, respectively. Further, the intrinsic clearance was 20.2 ± 1.8 µL/min/mg protein in [28] (absence of NADPH) and 70.7 ± 2.9 µL/min/mg protein in data set [28] (presence of NADPH). Further, the “increase of intrinsic clearance by NADPH” value in data set [28] (presence vs absence of NADPH) is given as 3.5 fold. The Absorption result in data set [3] is “fast”. Moreover, the Clearance entry in data set [3] is “fast”. Further, the “percent of total oprozomib recovered as component” value (“percent” below) in data set [31] is listed as 20%. In addition, the “maximum tolerated dose (MTD)” value in data set [32] (first 2 days every 7 days of a 14-day cycle (2/7 schedule)) is 300 mg/day; in [32] (first 5 days of a 14-day cycle (5/14 schedule)), 240 mg/day. The “Subunit Inhibition” value in data set [7] is “ß5 and LMP7”. Also, the “Metabolic Pathwas” value in data set [8] is given as “Microsomal epoxide hydrolase peptidases, CYPs”. Moreover, in data set [33], the proteasome inhibition is listed as at least 70%.
As for `COC[C@H](NC(=O)c1cnc(C)s1)C(=O)N[C@@H](COC)C(=O)N[C@@H](Cc1ccccc1)C(=O)[C@](C)(O)CO` [PR-176], the “percent” value in [31] is recorded as ~ 55%.
Turning to `C[C@@](O)(CO)C(=O)[C@@H](N)Cc1ccccc1` [diol of PR-025], the “percent” value in [31] was ~ 7%.
